Assay results: US20230273203A1, “METHOD FOR DETERMINING FORMULATION OF COMBINATION CONSISTING OF MULTIPLE CANDIDATE SUBSTRATES OF SMELL, TASTE, OR SOMATIC SENSATION AND REPRODUCING SMELL, TASTE, OR SOMATIC SENSATION OF TARGET SUBSTANCE” (Japan Tobacco Inc., priority 2020, published 2023)

What was measured:
[1] = tested on: OR9; experiment: Olfactory receptor response measurement, CRE-luciferase reporter in HEK-Olf cells; assay type: cell-based, human; settings: ◯ = receptor responds to the fragrance; luminescence after 3 hours
[2] = tested on: OR3; experiment: as above; assay type: cell-based, human; settings: ◯ = receptor responds to the fragrance; luminescence after 3 hours
[3] = tested on: OR7; experiment: as above; assay type: cell-based, human; settings: ◯ = receptor responds to the fragrance; luminescence after 3 hours
[4] = tested on: OR8; experiment: as above; assay type: cell-based, human; settings: ◯ = receptor responds to the fragrance; luminescence after 3 hours
[5] = tested on: OR10; experiment: as above; assay type: cell-based, human; settings: ◯ = receptor responds to the fragrance; luminescence after 3 hours
Description: (§1) An olfactory receptor gene library (pFN21KSPc HaloTag-OR) prepared by inserting 351 human olfactory receptor genes obtained from a human cDNA library into the pFN21KSPc HaloTag vector was purchased from Kazusa Genome Technologies. Of the 351 types, olfactory receptors OR1A1, OR2B11, and the like were polymorphisms known to show low responses to known agonists, such that the olfactory receptors were modified into polymorphisms with high responsiveness for use in the subsequent test (Joel D. Mainland, et al., Nat Neurosci. 2014; 17(1): p. 114-120).
The cell line HEK-Olf obtained in Example 1 was prepared in DMEM medium (Thermo Fisher) and then seeded in a 96-well plate (Corning) at 1×10^4 cells/well. Subsequently, pFN21KSPc HaloTag-OR and pGL4.29[luc2P/CRE/Hygro] […]
(§2) Each olfactory receptor expressing HEK-Olf obtained above was cultured for 24 hours at 37° C. under 5% CO2; then the medium was removed, and test compounds (candidate substances) prepared appropriately in DMEM medium were added in 50 μL aliquots. […] After 3 hours of reaction at 37° C. under 5% CO2, responses of the olfactory receptors were obtained by luminescence measurement using ONE-Glo (trademark) Luciferase Assay kit (Promega).
(§3) The response intensity R of an olfactory receptor at each concentration was calculated using the luminescence intensity (RLU) obtained in the measurement, based on formula (6) below: […]

[6] = Sensory evaluation of similarity in odor quality to coumarin (VAS); assay type: in vivo, human; settings: headspace aroma, panel of five trained experts, samples in propylene glycol at Table 2 concentrations; FIG. 4
Protocol: In this example, similarity in odor quality between coumarin and the coumarin reconstitution fragrance obtained in Example 3 was verified by sensory evaluation. In the sensory evaluation, the verification was performed by a panel of five trained experts. The similarity in odor was obtained by evaluating the similarity between the headspace aromas of coumarin presented as a reference and each evaluation sample presented blindly, using a Visual Analog Scale (VAS).

[7] = tested on: OR5; experiment: Olfactory receptor response measurement, CRE-luciferase reporter in HEK-Olf cells; assay type: cell-based, human; settings: ◯ = receptor responds to the fragrance; luminescence after 3 hours
Description: as §1
(§4) The cell line HEK-Olf obtained in Example 1 was prepared in DMEM medium (Thermo Fisher) and then seeded in a 96-well plate (Corning) at 1×10^4 cells/well. Subsequently, pFN21KSPc HaloTag-OR and pGL4.29[luc2P/CRE/Hygro] Vector (Promega) were introduced into the HEK-Olf with ViaFect (trademark) Transfection Reagent (Promega). At this time, pFN21KSPc HaloTag-OR and pGL4.29[luc2P/CRE/Hygro] Vector were prepared to give 70 ng/well and 30 ng/well, respectively. Using each olfactory receptor expressing HEK-Olf thus constructed, measurement of responses of the olfactory receptors was performed as follows.
(§5) Each olfactory receptor expressing HEK-Olf obtained above was cultured for 24 hours at 37° C. under 5% CO2; then the medium was removed, and test compounds (candidate substances) prepared appropriately in DMEM medium were added in 50 μL aliquots. DMEM medium containing no test compound was added to negative control wells, and forskolin adjusted to 3 μM was added to positive control wells. After 3 hours of reaction at 37° C. under 5% CO2, responses of the olfactory receptors were obtained by luminescence measurement using ONE-Glo (trademark) Luciferase Assay kit (Promega).
as §3
(§6) Furthermore, using the curve fitting software XLFit (IDBS), the maximum response intensity and EC50 of the dose response curve were derived.

[8] = tested on: OR2; experiment: as above; assay type: cell-based, human; settings: ◯ = receptor responds to the fragrance; luminescence after 3 hours
Description: as §1, §4, §5, §3, §6

[9] = tested on: OR1; experiment: as above; assay type: cell-based, human; settings: ◯ = receptor responds to the fragrance; luminescence after 3 hours
Description: as §1, §4, §5, §3, §6

[10] = tested on: OR6; experiment: as above; assay type: cell-based, human; settings: ◯ = receptor responds to the fragrance; luminescence after 3 hours
Description: as §1, §4, §5, §3, §6

[11] = tested on: OR4; experiment: as above; assay type: cell-based, human; settings: ◯ = receptor responds to the fragrance; luminescence after 3 hours
Description: as §1, §4, §5, §3, §6

[12] = tested on: 351 human olfactory receptors; experiment: Response screen of 351 human olfactory receptors; assay type: cell-based; settings: out of 351 human olfactory receptors; all responders class II
Description: An olfactory receptor gene library (pFN21KSPc HaloTag-OR) prepared by inserting 351 human olfactory receptor genes obtained from a human cDNA library into the pFN21KSPc HaloTag vector was purchased from Kazusa Genome Technologies. Of the 351 types, olfactory receptors OR1A1, OR2B11, and the like were polymorphisms known to show low responses to known agonists, such that the olfactory receptors were modified into polymorphisms with high responsiveness for use in the subsequent test (Joel D. Mainland, et al., Nat Neurosci. 2014; 17(1): p. 114-120). […]
as §2, §3
Based on the above-described procedure, 351 human olfactory receptors were measured for responses to coumarin as a fragrance. […]

CCCCC(=O)OCC [Ethyl Valerate, ethyl valerate]
response of olfactory receptor OR9 to the fragrance [1]: ◯

CC(C)[C@@H]1CC[C@@H](C)CC1=O [Menthone, menthone]
response of olfactory receptor OR3 to the fragrance [2]: ◯

C=C(C)[C@@H]1CCC2=CC(=O)C[C@@H](C)[C@]2(C)C1 [Nootkatone, nootkatone]
response of olfactory receptor OR9 to the fragrance [1]: ◯ | response of olfactory receptor OR7 to the fragrance [3]: ◯ | response of olfactory receptor OR8 to the fragrance [4]: ◯ | response of olfactory receptor OR10 to the fragrance [5]: ◯

O=Cc1ccc2c(c1)OCO2 [Piperonal, piperonal]
similarity in odor quality to coumarin (VAS) [6]: low similarity | response of olfactory receptor OR5 to the fragrance [7]: ◯ | response of olfactory receptor OR2 to the fragrance [8]: ◯ | response of olfactory receptor OR1 to the fragrance [9]: ◯ | response of olfactory receptor OR6 to the fragrance [10]: ◯ | response of olfactory receptor OR4 to the fragrance [11]: ◯

O=c1ccc2ccccc2o1 [coumarin, reference compound]
number of olfactory receptors showing dose-dependent responses [12]: six | response of olfactory receptor OR5 to the fragrance [7]: confirmed to respond | response of olfactory receptor OR2 to the fragrance [8]: confirmed to respond | response of olfactory receptor OR1 to the fragrance [9]: confirmed to respond | response of olfactory receptor OR6 to the fragrance [10]: confirmed to respond | response of olfactory receptor OR4 to the fragrance [11]: confirmed to respond | response of olfactory receptor OR3 to the fragrance [2]: confirmed to respond

O=C(O)C=Cc1ccccc1O [o-Hydroxycinnamic Acid, o-hydroxycinnamic acid]
response of olfactory receptor OR9 to the fragrance [1]: ◯ | response of olfactory receptor OR7 to the fragrance [3]: ◯ | response of olfactory receptor OR8 to the fragrance [4]: ◯

CCCC1CCC(=O)O1 (stereo not shown) [γ-Heptalactone, γ-heptalactone]
response of olfactory receptor OR5 to the fragrance [7]: ◯ | response of olfactory receptor OR1 to the fragrance [9]: ◯ | response of olfactory receptor OR3 to the fragrance [2]: ◯
